Test results taken from ChEMBL document CHEMBL3621061 (J Med Chem, 2015).

What was measured:
[1] = Displacement of [3H]histamine from dog histamine H4 receptor expressed in HEK293T cells; type: cell-based, Canis lupus familiaris; conditions: hek-293t
[2] = Displacement of [3H]histamine from monkey histamine H4 receptor expressed in HEK293T cells; type: cell-based, Macaca mulatta; conditions: hek-293t
Histamine H4 receptor = molecular target: T1, Histamine H4 receptor (Cavia porcellus, UniProt Q91ZY3)
T1 sequence (Q91ZY3 whole entry): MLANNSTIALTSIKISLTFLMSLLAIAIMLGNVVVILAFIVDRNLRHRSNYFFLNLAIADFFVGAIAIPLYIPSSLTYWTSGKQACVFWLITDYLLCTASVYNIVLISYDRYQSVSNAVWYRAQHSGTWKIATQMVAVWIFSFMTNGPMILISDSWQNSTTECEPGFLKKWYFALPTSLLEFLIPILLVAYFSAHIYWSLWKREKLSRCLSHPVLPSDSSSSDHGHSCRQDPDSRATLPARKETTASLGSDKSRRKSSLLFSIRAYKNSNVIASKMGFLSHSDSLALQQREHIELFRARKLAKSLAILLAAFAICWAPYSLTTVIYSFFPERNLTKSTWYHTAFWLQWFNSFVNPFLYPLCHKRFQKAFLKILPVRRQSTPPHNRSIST

[3] = Displacement of [3H]histamine from monkey recombinant histamine H4 receptor; design: species or system Macaca mulatta
[4] = Displacement of [3H]histamine from dog recombinant histamine H4 receptor; design: species or system Canis lupus familiaris

Work on `CN[C@@H]1CCN(c2cc(NCC3CC3)nc(N)n2)C1` [ADRIFORANT] yielded a pKi [1] of 5.79 and a pKi [2] of 7.81.
Compound `NCCc1c[nH]cn1` [HISTAMINE] has a Ki (Histamine H4 receptor) of 0.006 µM.
Compound `CC(C)c1cc(N2CC[C@@H](N)C2)nc(N)n1` [JNJ-39758979] has a Ki [3] of 0.025 µM and a Ki [4] greater than 10 µM.
